The values that follow come from patent US11707530B2, “Ligand capable of multivalently binding to glutamine transporter, and composition comprising same” (TOKYO INSTITUTE OF TECHNOLOGY, priority 2016, dated 2023).

The target of experiment [1] is T1, ASCT2 (Homo sapiens, UniProt Q15758).
T1 sequence (Q15758 1-541): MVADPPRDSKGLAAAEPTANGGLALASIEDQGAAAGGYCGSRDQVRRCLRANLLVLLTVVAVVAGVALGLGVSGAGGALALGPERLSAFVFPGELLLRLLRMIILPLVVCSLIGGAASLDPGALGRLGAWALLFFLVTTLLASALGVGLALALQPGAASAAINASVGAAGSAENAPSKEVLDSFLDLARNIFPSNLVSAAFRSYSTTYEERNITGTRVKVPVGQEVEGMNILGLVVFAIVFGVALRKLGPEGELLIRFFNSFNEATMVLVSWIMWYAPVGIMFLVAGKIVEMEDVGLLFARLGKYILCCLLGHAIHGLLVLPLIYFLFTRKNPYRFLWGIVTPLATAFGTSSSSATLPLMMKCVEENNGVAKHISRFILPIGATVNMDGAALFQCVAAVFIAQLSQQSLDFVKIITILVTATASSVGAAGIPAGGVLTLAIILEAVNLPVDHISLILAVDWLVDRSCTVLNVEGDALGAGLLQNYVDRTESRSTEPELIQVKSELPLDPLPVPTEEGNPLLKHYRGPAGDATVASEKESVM
Nature of the experiment: Antibody labeling of Bx-PC3 cells after incubation in Bzl-Ser solution. The format is cell-based. Details: endogenous in cells; host or cells: Bx-PC3 (BxPC-3) pancreatic cancer cells. To be noted: 50 mM Bzl-Ser.

The target of experiment [2] is T1, ASCT2. The settings on record: background statement; read-out: Km (Michaelis constant, affinity for ASCT2); cited from earlier work.

With `N[C@@H](COCc1ccccc1)C(=O)O` [Bzl-Ser, O-benzyl-L-serine], on ASCT2 [1], the “antibody labeling, cells incubated in Bzl-Ser solution vs PBS+10% FBS” value is listed as “no difference observed”.

As for `NC(=O)CC[C@H](N)C(=O)O` [glutamine, L-glutamine], at ASCT2 [2], the Michaelis constant (Km) is 20 µM.

For orientation: Km means the concentration of substrate that gives half-maximal velocity.
